# Experimental data as given in PMC6151488, “Structure, Absolute Configuration, and Antiproliferative Activity of Abietane and Icetexane Diterpenoids from Salvia ballotiflora” (Molecules : A Journal of Synthetic Chemistry and Natural …, 2017).
# Several values for one entry are separate records, joined by “and”; a condition that tells them apart may be missing. Equal entries are not always repeated. Where two headings read alike, the source gives them in different places.
# Experiments:
# [1] = tested on: PC-3 (human prostate cancer); assay: Sulforhodamine B (SRB) cytotoxicity assay, PC-3; type: cell-based
# Excerpt: (§1) The natural products were screened in vitro against the following human cancer cell lines: human mammary adenocarcinoma (MCF-7), human chronic myelogenous leukemia (K562), human glioblastoma (U251), human lung adenocarcinoma (SKLU-1), human colon cancer (HCT-15), human prostate cancer (PC-3), healthy gingival human fibroblasts (FGH), and normal monkey kidney cell lines, which were supplied by the National Cancer Institute (NCI, USA) and American Type Culture Collection (ATTC). The human tumor cytotoxicity was determined using the protein-binding dye sulforhodamine B (SRB) in a microculture assay to measure cell growth, as described in the protocol established by the NCI [30]. The cell lines were cultured in RPMI-1640 medium supplemented with 10% fetal bovine serum, 2 mM L-glutamine, 10,000 units/mL penicillin G sodium, 10,000 μg/mL streptomycin sulfate, and 25 μg/mL amphotericin B (Gibco), and 1% non-essential amino acids (Gibco). They were maintained at 37 °C in a humidified atmosphere with 5% CO2. The viability of the cells used in the experiments exceeded 95%, as determined with trypan blue.
# (§2) Cytotoxicity after treatment of the tumors cells and normal cells with the test compounds were determined using the protein-binding dye sulforhodamine B (SRB) in a microculture assay to measure cell growth. The cells were removed from the tissue culture flasks by treatment with trypsin, and diluted with fresh media. Of these cell suspensions, 100 μL containing 5000–10,000 cells per well were pipetted into 96-well microtiter plates (Costar) and the material was incubated at 37 °C for 24 h in a 5% CO2 atmosphere. Subsequently, 100 μL of a solution of the compound obtained by diluting the stocks were added to each well. The cultures were exposed to the compound for 48 h. After the incubation period, cells were fixed to the plastic substratum by the addition of 50 μL of cold 50% aqueous trichloroacetic acid. The plates were incubated at 4 °C for 1 h, washed with tap water, and air-dried. The trichloroacetic-acid-fixed cells were stained by the addition of 0.4% SRB. The free SRB solution was then removed by washing with 1% aqueous acetic-acid. The plates were air-dried, and the bound dye was dissolved by the addition of 10 mM unbuffered Tris base (100 μL). The plates were placed on a shaker for 10 min, and the absorption was determined at 515 nm using an ELISA plate reader (Bio-Tex Instruments).
# [2] = tested on: U251 (human glioblastoma); assay: Sulforhodamine B (SRB) cytotoxicity assay, U251; type: cell-based
# Excerpt: as §1, with “CO2.” for “CO2. The viability of the cells used in the experiments exceeded 95%, as determined with trypan blue.”
# as §2
# [3] = tested on: HCT-15 (human colon cancer); assay: Sulforhodamine B (SRB) cytotoxicity assay, HCT-15; type: cell-based
# Excerpt: as §1, §2
# [4] = Scavenging activity on free radical DPPH; conditions: 30 min, 37 °C; for DPPH inhibitory effect (%): at 100 μM; for IC50: DPPH 100 μM, mean ± SEM
# Protocol: Free radical scavenging activity was measured using an adapted method of Mellors and Tappel. The test was carried out in 96-well microplates. A 50-μL aliquot of the solution of the test compound was mixed with 150 μL of an ethanol solution of DPPH (final concentration 100 μM). The mixture was incubated at 37 °C for 30 min, and the absorbance was then measured at 515 nm using a BioTek microplate reader SYNERGY HT. The percent inhibition was determined by comparison with a 100-μM DPPH ethanol blank solution.
# [5] = tested on: K562 (human chronic myelogenous leukemia); assay: Sulforhodamine B (SRB) cytotoxicity assay, K562; type: cell-based; conditions: Homo sapiens, K562
# Excerpt: as §1, §2
# [6] = tested on: COS-7 normal monkey kidney; assay: Sulforhodamine B (SRB) cytotoxicity assay, COS-7 normal cell line; type: cell-based; conditions: Primates, mean ± SD
# Excerpt: as §1
# as §2, with “The plates were incubated at 4 °C for 1 h, washed with tap water, and air-dried. The trichloroacetic-acid-fixed cells were stained by the addition of 0.4% SRB. The free SRB solution was then removed by washing with 1% aqueous acetic-acid. The plates were air-dried, and the bound dye was dissolved by the addition of 10 mM unbuffered Tris base (100 μL).” left out
# [7] = tested on: SKLU-1 (human lung adenocarcinoma); assay: Sulforhodamine B (SRB) cytotoxicity assay, SKLU-1; type: cell-based; conditions: for IC50: SRB assay, 48 h exposure, mean ± SD, read-out: IC50 antiproliferative activity, SKLU-1; for inhibition at 50 µM: primary screening at 50.0 μM, NC = No cytotoxic
# Excerpt: as §1, §2
# [8] = tested on: MCF-7 (human mammary adenocarcinoma); assay: Sulforhodamine B (SRB) cytotoxicity assay, MCF-7; type: cell-based; conditions: for inhibition at 50 µM: primary screening at 50.0 μM
# Excerpt: as §1, §2
# TPA-induced ear edema = TPA-induced ear edema test in mice; type: in vivo; conditions: mice CD-1, 1.0 μmol ear^-1 topical, 4 h after TPA, mean ± SEM; for Inhibition of Edema (%): NA = Non-active
# Protocol: Male CD-1 mice weighing 25–30 g were maintained under standard laboratory conditions in the animal house (temperature 24 ± 2 °C) in a 12/12 h light/dark cycle, fed a laboratory diet and water ad libitum, following the Mexican official norm NOM-062-Z00-1999.
# The TPA-induced ear edema assay in mice was performed as reported in reference. A solution of TPA (2.5 μg) in ethanol (10 μL) was applied topically to both faces (5 μL each ear) of the right ear of the mice, 10 min after solutions of the test substances in their respective solvents were applied (10 μL each face). The left ear received ethanol (10 μL) first, followed by 20 μL of the respective solvent. The mice were killed with CO2 four hours later. A 7-mm diameter plug was removed from each ear. The swelling was assessed as the difference in weight between the left and the right ear. Control animals received the correspondent solvent in each case. Edema inhibition (EI %) was calculated by the equation EI % = 100 − (B × 100/A), where A is the edema induced by TPA alone and B is the edema induced by TPA plus the sample. Indomethacin and celecoxib were used as reference compounds.
# [9] = tested on: six human cancer cell lines (U251, PC-3, K562, HCT-15, MCF-7, SKLU-1) and FGH; assay: SRB primary screening, whole panel (result in words); type: cell-based; conditions: primary screening at 50.0 μM, complete panel
# Protocol: The same biological activity was also recently described for icetexane-derivatives isolated from Premna and Amentotaxus species. […] These facts prompted us to assay diterpenoids 3, 4, 6–8 and 10 for antiproliferative activity using six human cancer cell lines (U251, PC-3, K562, HCT-15, MCF-7, and SKLU-1), and a primary culture of healthy gingival human fibroblasts (FGH) at 1.0 or 50.0 μM (when cytotoxicity at 50.0 μM results were too high). […] Overall, the antiproliferative activity determined for 7 was lower than that observed for 6.
# as §1
# Cytotoxicity after treatment of the tumors cells and normal cells with the test compounds were determined using the protein-binding dye sulforhodamine B (SRB) in a microculture assay to measure cell growth. […] The plates were placed on a shaker for 10 min, and the absorption was determined at 515 nm using an ELISA plate reader (Bio-Tex Instruments).
# [10] = primary screening at 1.0 μM, mean n = 2
# [11] = Homo sapiens, SK-LU-1, mean n = 2, read-out: Antiproliferative activity (%), SKLU-1
# [12] = Homo sapiens, MCF7, mean n = 2, NC = No cytotoxic, read-out: Antiproliferative activity (%), MCF-7
compound,measurement,setting,value
"CC(C)C1=C(O)C(=O)C2=CC3=CCCC4(C)C(=O)OC(C=C2C1=O)C34 (centres unmarked) [Compound 6, Anastomosine]",inhibition at 1 µM,"[1]; primary screening at 1.0 μM, mean n = 2, read-out: Antiproliferative activity (%), PC-3",82.3%
same,inhibition at 1 µM,"[2]; Homo sapiens, U-251, primary screening at 1.0 μM, mean n = 2, read-out: Antiproliferative activity (%), U251",98.4%
same,"Antiproliferative activity (%), U251",[2]; [10],very toxic
same,"SI (selectivity index), U251",[2]; quotient of IC50 of COS-7 / IC50 of U251,2.3
same,inhibition at 1 µM,"[3]; primary screening at 1.0 μM, mean n = 2, read-out: Antiproliferative activity (%), HCT-15",85.6%
same,melting point,,220 to 224 °C
same,DPPH inhibitory effect (%),[4],8.2%
same,inhibition at 1 µM,"[5]; primary screening at 1.0 μM, mean n = 2, read-out: Antiproliferative activity (%), K562",76.4%
same,IC50,[6],610 ± 7 nM
same,IC50,"[7]; Homo sapiens, SK-LU-1, 48 h",820 ± 60 nM
same,inhibition at 1 µM,"[7]; Homo sapiens, SK-LU-1, primary screening at 1.0 μM, mean n = 2, read-out: Antiproliferative activity (%), SKLU-1",100%
same,IC50,[7],460 ± 50 nM
same,"Antiproliferative activity (%), SKLU-1",[7]; [10],very toxic
same,"SI (selectivity index), SKLU-1",[7]; quotient of IC50 of COS-7 / IC50 of SKLU-1,1.3
same,inhibition at 1 µM,"[8]; Homo sapiens, MCF7, primary screening at 1.0 μM, mean n = 2, NC = No cytotoxic, read-out: Antiproliferative activity (%), MCF-7",51.3%
same,"Antiproliferative activity (%), MCF-7","[8]; primary screening at 1.0 μM, mean n = 2, NC = No cytotoxic",moderately toxic
same,Edema,TPA-induced ear edema,15.97 ± 0.61 mg
same,Inhibition of Edema (%),TPA-induced ear edema,non-active
"CC(C)c1c(O)c(O)c2c(c1O)C(=O)CC1C3(CCCC1(C)C(=O)O3)C2 (centres unmarked) [Compound 4, 6,7,11,14-Tetrahydro-7-oxoicetexone]",inhibition at 50 µM,"[1]; primary screening at 50.0 μM, mean n = 2, NC = No cytotoxic, read-out: Antiproliferative activity (%), PC-3",80.3%
same,inhibition at 50 µM,"[2]; Homo sapiens, U-251, primary screening at 50.0 μM, mean n = 2, NC = No cytotoxic, read-out: Antiproliferative activity (%), U251",100%
same,inhibition at 50 µM,"[3]; primary screening at 50.0 μM, mean n = 2, NC = No cytotoxic, read-out: Antiproliferative activity (%), HCT-15",76.7%
same,Toxicity to the complete panel (in words),[9],very toxic
same,melting point,,130 to 135 °C
same,IC50,[4],98400 ± 3300 nM
same,DPPH inhibitory effect (%),[4],64.5%
same,inhibition at 50 µM,"[5]; primary screening at 50.0 μM, mean n = 2, NC = No cytotoxic, read-out: Antiproliferative activity (%), K562",100%
same,inhibition at 50 µM,[7]; [11],96.9%
same,inhibition at 50 µM,[8]; [12],99%
"Cc1ccc(-c2cc(C(F)(F)F)nn2-c2ccc(S(N)(=O)=O)cc2)cc1 [Celecoxib, celecoxib, reference compound]",Edema,TPA-induced ear edema,6.94 ± 1.56 mg
same,Inhibition of Edema (%),TPA-induced ear edema,54.34 ± 10.28%
same,Inhibition of Edema (%),TPA-induced ear edema; listed as celecoxib,54.3 ± 10.3%
"Cc1c(C)c2c(c(C)c1O)CC[C@@](C)(CCC[C@H](C)CCC[C@H](C)CCCC(C)C)O2 [α-tocopherol, reference compound]",IC50,[4],31700 ± 1040 nM
"CC(C)C1=C(O)C(=O)C2=C(C1=O)C(O)CC1C3(C)CCCC21C(O)OC3 (centres unmarked) [Compound 10, conacytone]",Toxicity to the complete panel (in words),[9],no toxicity
same,DPPH inhibitory effect (%),[4],4.8%
same,inhibition at 50 µM,[7]; [11],11.8%
same,inhibition at 50 µM,[8]; [12],14.7%
same,Edema,TPA-induced ear edema,11.77 ± 047 mg
same,Inhibition of Edema (%),TPA-induced ear edema,25.4 ± 3.0% and 25.37 ± 2.98 %
"COc1cccc2c1C(=O)c1c(O)c3c(c(O)c1C2=O)C[C@@](O)(C(=O)CO)C[C@@H]3O[C@H]1C[C@H](N)[C@H](O)[C@H](C)O1 [Adriamicyn, adriamycin, reference compound]",inhibition at 0.5 µM,"[1]; positive control at 0.5 μM, mean n = 2, read-out: Antiproliferative activity (%), PC-3",85.2%
same,IC50,"[2]; Homo sapiens, U-251, 48 h, SRB assay, 48 h exposure, mean ± SD, read-out: IC50 antiproliferative activity, U251",80 ± 3 nM
same,inhibition at 0.5 µM,"[2]; Homo sapiens, U-251, positive control at 0.5 μM, mean n = 2, read-out: Antiproliferative activity (%), U251",96%
same,inhibition at 0.5 µM,"[3]; positive control at 0.5 μM, mean n = 2, read-out: Antiproliferative activity (%), HCT-15",86.9%
same,IC50,"[5]; SRB assay, 48 h exposure, mean ± SD, read-out: IC50 antiproliferative activity, K562",200 ± 20 nM
same,inhibition at 0.5 µM,"[5]; positive control at 0.5 μM, mean n = 2, read-out: Antiproliferative activity (%), K562",100%
same,IC50,[6],250 ± 9 nM
same,IC50,"[7]; Homo sapiens, SK-LU-1, 48 h",50 ± 3 nM
same,inhibition at 0.5 µM,"[7]; Homo sapiens, SK-LU-1, positive control at 0.5 μM, mean n = 2, read-out: Antiproliferative activity (%), SKLU-1",90%
same,IC50,"[8]; Homo sapiens, MCF7, SRB assay, 48 h exposure, mean ± SD, read-out: IC50 antiproliferative activity, MCF-7",230 ± 20 nM
same,inhibition at 0.5 µM,"[8]; Homo sapiens, MCF7, positive control at 0.5 μM, mean n = 2, read-out: Antiproliferative activity (%), MCF-7",99.1%
"COc1ccc2c(c1)c(CC(=O)O)c(C)n2C(=O)c1ccc(Cl)cc1 [Indometacin, Indomethacin, reference compound]",Edema,TPA-induced ear edema,2.88 ± 0.73 mg
same,Inhibition of Edema (%),TPA-induced ear edema,78.76 ± 7.68 %
same,Inhibition of Edema (%),TPA-induced ear edema; listed as indomethacine,78.8 ± 7.7%
"O=c1c(O)c(-c2ccc(O)c(O)c2)oc2cc(O)cc(O)c12 [quercetin, reference compound]",IC50,[4],10900 ± 500 nM
